Experiments:
Assay in all cases: biochemical
Design in all cases: DiscoverX KinomeScan competition binding assay across human kinases; per cent of control at 10 and 100 uM
MST3 = target: T1, MST3 (Homo sapiens, UniProt Q9Y6E0); conditions: competition binding, % of control; read-out: Percent Control (100 uM Levosimendan)
T1 construct: gene STK24
Method in brief: (§1)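 Binding is expressed as %control, normalised between positive and negative control signals. The compound (levosimendan) was tested at 10 μM and 100 μM in the DiscoverX KinomeScan competition binding format against human kinases.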

PIK3CA(E545A) = PIK3CA(E545A) (Homo sapiens, UniProt P42336, E545A); conditions: competition binding, % of control; read-out: Percent Control (100 uM Levosimendan)
Method in brief: as §1

[1] = target: T2, ABL1(F317L)-nonphosphorylated (Homo sapiens, UniProt P00519, F317L); conditions: competition binding, % of control; read-out: Percent Control (100 uM Levosimendan)
T2 construct: nonphosphorylated
Method in brief: as §1

CSF1R = CSF1R (Homo sapiens, UniProt P07333); conditions: competition binding, % of control
CSF1R, sequence (P07333 whole entry): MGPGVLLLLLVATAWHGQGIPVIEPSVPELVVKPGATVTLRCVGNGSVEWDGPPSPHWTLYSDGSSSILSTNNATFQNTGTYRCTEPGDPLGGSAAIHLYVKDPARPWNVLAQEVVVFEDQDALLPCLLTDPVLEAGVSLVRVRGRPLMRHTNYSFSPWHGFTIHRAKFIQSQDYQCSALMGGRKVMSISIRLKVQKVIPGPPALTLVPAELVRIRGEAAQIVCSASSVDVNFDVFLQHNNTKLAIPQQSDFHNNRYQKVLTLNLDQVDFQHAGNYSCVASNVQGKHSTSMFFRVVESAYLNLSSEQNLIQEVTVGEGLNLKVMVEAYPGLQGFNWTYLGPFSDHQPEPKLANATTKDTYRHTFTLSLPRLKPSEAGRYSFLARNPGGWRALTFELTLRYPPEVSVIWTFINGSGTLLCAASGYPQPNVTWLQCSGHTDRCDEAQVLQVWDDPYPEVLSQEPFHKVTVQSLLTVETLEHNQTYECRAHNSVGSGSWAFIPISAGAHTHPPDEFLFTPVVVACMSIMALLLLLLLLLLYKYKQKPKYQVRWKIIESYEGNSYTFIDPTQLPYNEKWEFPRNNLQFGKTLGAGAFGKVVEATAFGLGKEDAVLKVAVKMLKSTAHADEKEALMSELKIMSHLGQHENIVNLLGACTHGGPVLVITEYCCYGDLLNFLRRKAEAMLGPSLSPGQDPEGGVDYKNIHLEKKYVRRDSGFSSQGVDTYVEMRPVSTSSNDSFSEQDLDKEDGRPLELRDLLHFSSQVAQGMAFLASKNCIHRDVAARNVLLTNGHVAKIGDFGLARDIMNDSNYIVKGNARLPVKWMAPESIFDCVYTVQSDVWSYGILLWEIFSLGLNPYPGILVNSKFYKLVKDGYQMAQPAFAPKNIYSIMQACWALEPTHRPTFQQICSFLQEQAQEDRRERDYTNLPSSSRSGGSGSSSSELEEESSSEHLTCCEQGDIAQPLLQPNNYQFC
Method in brief: as §1

EPHA8 = EPHA8 (Homo sapiens, UniProt P29322); conditions: competition binding, % of control; read-out: Percent Control (100 uM Levosimendan)
EPHA8, sequence (P29322 whole entry): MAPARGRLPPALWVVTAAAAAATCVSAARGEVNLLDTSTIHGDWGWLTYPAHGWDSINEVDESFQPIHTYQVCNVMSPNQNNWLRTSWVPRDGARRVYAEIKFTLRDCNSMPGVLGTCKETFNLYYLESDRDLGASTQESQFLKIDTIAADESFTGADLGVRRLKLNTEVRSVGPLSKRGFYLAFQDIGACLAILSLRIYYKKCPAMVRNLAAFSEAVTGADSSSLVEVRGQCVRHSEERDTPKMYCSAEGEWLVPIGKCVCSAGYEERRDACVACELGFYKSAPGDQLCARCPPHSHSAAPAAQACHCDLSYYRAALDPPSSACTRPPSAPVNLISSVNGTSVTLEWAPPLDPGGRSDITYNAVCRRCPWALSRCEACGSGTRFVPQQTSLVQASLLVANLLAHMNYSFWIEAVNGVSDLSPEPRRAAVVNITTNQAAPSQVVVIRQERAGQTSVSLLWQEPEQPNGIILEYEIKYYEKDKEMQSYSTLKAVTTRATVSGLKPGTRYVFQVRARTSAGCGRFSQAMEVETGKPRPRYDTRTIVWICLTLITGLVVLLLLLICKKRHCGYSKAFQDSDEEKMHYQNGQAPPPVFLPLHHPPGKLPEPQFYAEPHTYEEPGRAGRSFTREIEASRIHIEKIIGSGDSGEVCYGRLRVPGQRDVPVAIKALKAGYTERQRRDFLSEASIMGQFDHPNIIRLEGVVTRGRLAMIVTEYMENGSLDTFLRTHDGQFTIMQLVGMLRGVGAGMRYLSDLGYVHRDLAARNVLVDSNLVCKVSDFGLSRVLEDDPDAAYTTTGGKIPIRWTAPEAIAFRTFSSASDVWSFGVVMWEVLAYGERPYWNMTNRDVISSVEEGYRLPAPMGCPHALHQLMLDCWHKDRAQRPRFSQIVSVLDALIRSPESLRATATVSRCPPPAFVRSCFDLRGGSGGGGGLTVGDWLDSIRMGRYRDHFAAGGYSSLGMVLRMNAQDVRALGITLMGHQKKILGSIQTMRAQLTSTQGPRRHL
Method in brief: as §1

NEK3 = NEK3 (Homo sapiens, UniProt P51956); conditions: competition binding, % of control; read-out: Percent Control (100 uM Levosimendan)
Method in brief: as §1

HIPK3 = HIPK3 (Homo sapiens, UniProt Q9H422); conditions: competition binding, % of control; read-out: Percent Control (100 uM Levosimendan)
Method in brief: as §1

ALK(C1156Y) = ALK(C1156Y) (Homo sapiens, UniProt Q9UM73, C1156Y); conditions: competition binding, % of control; read-out: Percent Control (100 uM Levosimendan)
Method in brief: as §1

SBK1 = SBK1 (Homo sapiens, UniProt Q52WX2); conditions: competition binding, % of control; read-out: Percent Control (100 uM Levosimendan)
Method in brief: as §1

CIT = CIT (Homo sapiens, UniProt O14578); conditions: competition binding, % of control; read-out: Percent Control (100 uM Levosimendan)
Method in brief: as §1

RIPK1 = RIPK1 (Homo sapiens, UniProt Q13546); conditions: competition binding, % of control; read-out: Percent Control (100 uM Levosimendan)
Method in brief: as §1

CAMK1D = CAMK1D (Homo sapiens, UniProt Q8IU85); conditions: competition binding, % of control; read-out: Percent Control (100 uM Levosimendan)
Method in brief: as §1

CSNK1G1 = CSNK1G1 (Homo sapiens, UniProt Q9HCP0); conditions: competition binding, % of control; read-out: Percent Control (100 uM Levosimendan)
Method in brief: as §1

MST4 = target: T3, MST4 (Homo sapiens, UniProt Q9P289); conditions: competition binding, % of control; read-out: Percent Control (100 uM Levosimendan)
T3 construct: gene STK26
Method in brief: as §1

PLK4 = PLK4 (Homo sapiens, UniProt O00444); conditions: competition binding, % of control
PLK4, sequence (O00444 whole entry): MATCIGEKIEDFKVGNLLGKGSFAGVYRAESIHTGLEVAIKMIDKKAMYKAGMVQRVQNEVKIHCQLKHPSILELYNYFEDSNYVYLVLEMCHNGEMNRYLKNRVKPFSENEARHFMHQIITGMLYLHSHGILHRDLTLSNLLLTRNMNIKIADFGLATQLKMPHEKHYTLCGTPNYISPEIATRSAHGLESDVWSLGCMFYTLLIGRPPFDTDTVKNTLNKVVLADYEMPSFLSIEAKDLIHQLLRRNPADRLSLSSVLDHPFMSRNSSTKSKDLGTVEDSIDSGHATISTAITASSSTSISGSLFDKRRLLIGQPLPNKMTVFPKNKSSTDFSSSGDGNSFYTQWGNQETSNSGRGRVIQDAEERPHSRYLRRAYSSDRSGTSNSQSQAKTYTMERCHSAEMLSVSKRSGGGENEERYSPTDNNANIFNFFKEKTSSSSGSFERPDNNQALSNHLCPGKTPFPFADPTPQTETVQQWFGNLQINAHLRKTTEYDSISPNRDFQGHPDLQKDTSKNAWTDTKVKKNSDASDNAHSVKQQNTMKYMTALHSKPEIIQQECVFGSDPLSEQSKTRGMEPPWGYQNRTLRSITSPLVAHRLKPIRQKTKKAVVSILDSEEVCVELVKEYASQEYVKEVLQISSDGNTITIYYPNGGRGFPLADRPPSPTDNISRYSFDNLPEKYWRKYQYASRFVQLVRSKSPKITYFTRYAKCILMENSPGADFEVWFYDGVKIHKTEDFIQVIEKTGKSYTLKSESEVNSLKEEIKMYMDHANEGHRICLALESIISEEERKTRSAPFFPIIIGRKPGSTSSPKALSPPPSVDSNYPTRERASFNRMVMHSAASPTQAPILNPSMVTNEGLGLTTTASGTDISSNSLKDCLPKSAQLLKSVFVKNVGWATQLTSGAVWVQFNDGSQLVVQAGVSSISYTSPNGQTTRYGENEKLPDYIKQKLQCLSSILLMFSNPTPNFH
Method in brief: as §1

YSK1 = target: T4, YSK1 (Homo sapiens, UniProt O00506); conditions: competition binding, % of control; read-out: Percent Control (100 uM Levosimendan)
T4 construct: gene STK25
Method in brief: as §1

GAK = GAK (Homo sapiens, UniProt O14976); conditions: competition binding, % of control
GAK, sequence (O14976 whole entry): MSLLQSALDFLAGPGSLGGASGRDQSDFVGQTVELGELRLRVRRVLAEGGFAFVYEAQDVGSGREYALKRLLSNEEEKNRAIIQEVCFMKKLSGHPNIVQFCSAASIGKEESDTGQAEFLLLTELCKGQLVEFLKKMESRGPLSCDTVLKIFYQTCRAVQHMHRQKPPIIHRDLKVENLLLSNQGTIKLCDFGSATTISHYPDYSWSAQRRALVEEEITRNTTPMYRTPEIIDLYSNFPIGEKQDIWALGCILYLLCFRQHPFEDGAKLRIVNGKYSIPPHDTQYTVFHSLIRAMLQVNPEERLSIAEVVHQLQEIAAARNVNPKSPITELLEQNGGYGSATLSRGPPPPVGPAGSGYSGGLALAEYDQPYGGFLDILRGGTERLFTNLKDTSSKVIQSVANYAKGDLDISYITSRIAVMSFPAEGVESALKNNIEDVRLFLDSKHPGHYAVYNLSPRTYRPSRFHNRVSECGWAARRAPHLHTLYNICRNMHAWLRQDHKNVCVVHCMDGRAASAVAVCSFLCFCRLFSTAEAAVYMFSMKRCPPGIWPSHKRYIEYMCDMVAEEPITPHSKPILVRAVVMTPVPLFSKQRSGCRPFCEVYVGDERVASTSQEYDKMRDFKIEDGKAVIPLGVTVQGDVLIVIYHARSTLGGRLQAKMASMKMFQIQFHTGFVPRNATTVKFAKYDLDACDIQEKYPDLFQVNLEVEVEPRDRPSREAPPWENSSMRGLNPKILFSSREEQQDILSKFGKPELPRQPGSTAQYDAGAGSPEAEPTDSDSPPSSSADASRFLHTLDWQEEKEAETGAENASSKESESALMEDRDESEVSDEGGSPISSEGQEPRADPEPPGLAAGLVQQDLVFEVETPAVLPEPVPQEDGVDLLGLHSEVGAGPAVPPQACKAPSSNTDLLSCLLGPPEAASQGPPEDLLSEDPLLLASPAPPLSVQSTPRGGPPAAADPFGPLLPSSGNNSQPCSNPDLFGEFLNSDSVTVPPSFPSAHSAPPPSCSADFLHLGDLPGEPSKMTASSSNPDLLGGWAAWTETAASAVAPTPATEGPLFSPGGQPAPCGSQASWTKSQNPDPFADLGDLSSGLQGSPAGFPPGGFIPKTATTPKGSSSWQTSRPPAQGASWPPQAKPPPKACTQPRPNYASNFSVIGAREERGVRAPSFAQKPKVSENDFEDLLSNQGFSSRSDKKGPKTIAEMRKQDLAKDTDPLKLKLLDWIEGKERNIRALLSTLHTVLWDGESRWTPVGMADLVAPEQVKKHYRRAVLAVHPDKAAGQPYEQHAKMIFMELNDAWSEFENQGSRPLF
Method in brief: as §1

MAP3K15 = MAP3K15 (Homo sapiens, UniProt Q6ZN16); conditions: competition binding, % of control; read-out: Percent Control (100 uM Levosimendan)
Method in brief: as §1

DCAMKL3 = target: T5, DCAMKL3 (Homo sapiens, UniProt Q9C098); conditions: competition binding, % of control; read-out: Percent Control (100 uM Levosimendan)
T5 construct: gene DCLK3
T5 sequence (Q9C098 whole entry): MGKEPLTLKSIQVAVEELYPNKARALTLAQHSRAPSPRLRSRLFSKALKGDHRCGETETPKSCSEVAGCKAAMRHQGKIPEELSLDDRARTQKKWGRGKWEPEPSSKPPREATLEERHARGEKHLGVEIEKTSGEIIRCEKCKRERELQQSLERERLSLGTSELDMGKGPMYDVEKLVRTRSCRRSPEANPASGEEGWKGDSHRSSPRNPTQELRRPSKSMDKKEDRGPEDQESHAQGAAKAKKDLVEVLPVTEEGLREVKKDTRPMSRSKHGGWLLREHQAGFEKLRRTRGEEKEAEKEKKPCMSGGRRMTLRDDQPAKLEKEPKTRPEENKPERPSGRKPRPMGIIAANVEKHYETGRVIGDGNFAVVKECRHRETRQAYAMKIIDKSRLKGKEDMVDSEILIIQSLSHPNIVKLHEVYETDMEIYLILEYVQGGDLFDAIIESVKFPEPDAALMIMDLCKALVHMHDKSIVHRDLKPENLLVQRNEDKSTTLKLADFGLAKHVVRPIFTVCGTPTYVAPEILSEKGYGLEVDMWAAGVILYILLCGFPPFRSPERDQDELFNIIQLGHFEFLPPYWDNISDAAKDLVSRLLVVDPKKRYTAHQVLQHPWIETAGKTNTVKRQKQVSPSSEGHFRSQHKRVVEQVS
Method in brief: as §1

[2] = read-out: Percent Control (10 uM Levosimendan)
[3] = read-out: Percent Control (100 uM Levosimendan)

remaining binding at 100 µM (MST3): 96%
remaining binding at 100 µM (PIK3CA(E545A)): 68%
remaining binding at 100 µM [1]: 100%
remaining binding at 10 µM (CSF1R; [2]): 78%
remaining binding at 100 µM (CSF1R; [3]): 40%
remaining binding at 100 µM (EPHA8): 91%
remaining binding at 100 µM (NEK3): 78%
remaining binding at 100 µM (HIPK3): 100%
remaining binding at 100 µM (ALK(C1156Y)): 64%
remaining binding at 100 µM (SBK1): 78%
remaining binding at 100 µM (CIT): 59%
remaining binding at 100 µM (RIPK1): 73%
remaining binding at 100 µM (CAMK1D): 57%
remaining binding at 100 µM (CSNK1G1): 78%
remaining binding at 100 µM (MST4): 71%
remaining binding at 10 µM (PLK4; [2]): 100%
remaining binding at 100 µM (PLK4; [3]): 45%
remaining binding at 100 µM (YSK1): 100%
remaining binding at 10 µM (GAK; [2]): 24%
remaining binding at 100 µM (GAK; [3]): 16%
remaining binding at 100 µM (MAP3K15): 100%
remaining binding at 100 µM (DCAMKL3): 100%
Compound: C[C@@H]1CC(=O)NN=C1c1ccc(NN=C(C#N)C#N)cc1 [levosimendan]

Reference: publication PMC6576746, “Rational discovery of dual-indication multi-target PDE/Kinase inhibitor for precision anti-cancer therapy using structural systems pharmacology” (PLoS Computational Biology, 2019)
